Data: the supplement of paper PMC10307832

What was measured:
Assay in all cases: relative viability (nuclei count vs DMSO), 5 days (fraction); higher = more cells survive
Ibrutinib + Luminespib = compound: C=CC(=O)N1CCC[C@@H](n2nc(-c3ccc(Oc4ccccc4)cc3)c3c(N)ncnc32)C1 [Ibrutinib] + CCNC(=O)c1noc(-c2cc(C(C)C)c(O)cc2O)c1-c1ccc(CN2CCOCC2)cc1 [Luminespib] (partner 0.01 µM)
In short: (§1)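 Relative viability divides the nuclei count in treated wells by that in vehicle wells. Lung cancer cell lines were seeded in 1536-well plates, dosed by pin tool the next day, and fixed and stained after 5 days in one step with final 0.05% Triton X-100, 1% formaldehyde and 1 ug/ml Hoechst. Dosing was a single drug or a fixed anchor-drug dose plus five library-drug doses (not always all listed) in √10 steps, and values are medians of duplicate plates imaged at 4×.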

Ibrutinib + Decitabine = compound: C=CC(=O)N1CCC[C@@H](n2nc(-c3ccc(Oc4ccccc4)cc3)c3c(N)ncnc32)C1 [Ibrutinib] + Nc1ncn([C@H]2C[C@H](O)[C@@H](CO)O2)c(=O)n1 [Decitabine] (partner 2 µM)
In short: as §1

Ibrutinib + AZD7762 = compound: C=CC(=O)N1CCC[C@@H](n2nc(-c3ccc(Oc4ccccc4)cc3)c3c(N)ncnc32)C1 [Ibrutinib] + NC(=O)Nc1cc(-c2cccc(F)c2)sc1C(=O)N[C@H]1CCCNC1 [AZD7762] (partner 0.2 µM)
In short: as §1

PAC-1 + Bortezomib = compound: C=CCc1cccc(/C=N/NC(=O)CN2CCN(Cc3ccccc3)CC2)c1O [PAC-1] + CC(C)C[C@H](NC(=O)[C@H](Cc1ccccc1)NC(=O)c1cnccn1)B(O)O [Bortezomib] (partner 0.002 µM)
In short: as §1

Cell Line	relative viability (Ibrutinib + Luminespib; first compound 0.01581 µM)	relative viability (Ibrutinib + Luminespib; first compound 0.05 µM)	relative viability (Ibrutinib + Luminespib; first compound 0.1581 µM)	relative viability (Ibrutinib + Luminespib; first compound 0.5 µM)	relative viability (Ibrutinib + Decitabine; first compound 0.005 µM)	relative viability (Ibrutinib + Decitabine; first compound 0.05 µM)	relative viability (Ibrutinib + Decitabine; first compound 0.1581 µM)	relative viability (Ibrutinib + Decitabine; first compound 0.5 µM)	relative viability (Ibrutinib + AZD7762; first compound 0.005 µM)	relative viability (Ibrutinib + AZD7762; first compound 0.01581 µM)	relative viability (Ibrutinib + AZD7762; first compound 0.05 µM)	relative viability (Ibrutinib + AZD7762; first compound 0.1581 µM)	relative viability (Ibrutinib + AZD7762; first compound 0.5 µM)	relative viability (PAC-1 + Bortezomib; first compound 0.02 µM)	relative viability (PAC-1 + Bortezomib; first compound 0.06325 µM)	relative viability (PAC-1 + Bortezomib; first compound 0.2 µM)	relative viability (PAC-1 + Bortezomib; first compound 2 µM)	relative viability (Ibrutinib + Luminespib; first compound 0.005 µM)	relative viability (Ibrutinib + Decitabine; first compound 0.01581 µM)
HOP-62	0.881	0.958	0.935	0.918	0.242	0.22	0.249	0.231	0.53	0.662	0.651	0.867	0.626	0.976	0.986	0.836	0.673		
IA-LM														0.803	0.756	0.783	0.807		
LC-2-ad	1.01	1.14	1.13		0.842	0.774	0.814	0.765	0.905	0.801	0.861	0.786	0.599	0.981	0.971	0.999	0.957	1.06	0.776
LK-2	0.183	0.176	0.166	0.164	0.19	0.261	0.217	0.251	0.31	0.513	0.438	0.405	0.25						0.244
NCI-H358	0.253	0.306	0.267	0.174	0.176		0.232	0.136	0.404	0.349	0.282	0.515	0.29					0.366	0.204
NCI-H520	0.237	0.247	0.232	0.269	0.447	0.497	0.606	0.498						0.716	0.624	0.607	0.421	0.252	0.512
NCI-H522	1.05	1.17	1.07	0.922	0.64	0.677	0.626	0.637	0.847	0.698	0.683	0.766	0.751					1.11	0.588
NCI-H661	0.835	0.772	0.934	0.653	0.498	0.428	0.471	0.381						0.782	0.816	0.782	0.91	1	0.489
NCI-H1299														1.02	0.99	0.975	0.993		
NCI-H1395	0.739	1.15	0.788	0.702	0.777	0.811	0.697	0.75	0.405	0.403	0.387	0.404	0.413					0.488	0.688
NCI-H1563	0.524	0.519	0.519	0.53										0.854	0.833	0.844	0.916	0.538	
NCI-H1623	0.505	0.486	0.414	0.304														0.382	
NCI-H1648					0.509	0.518	0.433	0.364	0.697	0.66	0.673	0.762	0.865						0.434
NCI-H1650	0.196	0.192	0.194	0.209	0.41	0.512	0.402	0.444						0.198	0.18	0.183	0.229	0.211	0.379
NCI-H1703										0.126		0.148	0.19	0.29	0.268	0.4	0.353		
NCI-H1793	0.155	0.196	0.177	0.151	0.478	0.432	0.502	0.366	0.395	0.33	0.408	0.85	0.13						0.485
NCI-H1944	0.57	0.714	0.669	0.536	0.426	0.413	0.433	0.372	0.388	0.455	0.409	0.448	0.422					0.649	0.363
NCI-H2009	1.06	1.07	1.02	1.05	0.375	0.372	0.46	0.415						1.01	0.994	0.897	0.956	1.07	0.373
NCI-H2023	0.678	0.665	0.737	0.907	0.245	0.249	0.208	0.23						1.2	1.04	0.87	1.02	0.671	0.234
NCI-H2170	0.425	0.446	0.741	0.344	0.438	0.389	0.457	0.173	0.699	0.695	0.655	0.769	0.182					0.435	0.47
NCI-H2228		0.116	0.131	0.144										0.897	1.26	1.03	1.51	0.121	
NCI-H2342	0.608	0.707	0.655	0.497	0.739	0.693	0.708	0.563	0.317	0.6	0.499	0.472	0.345					0.719	0.64
SK-LU-1	0.184	0.24	0.199	0.194	0.592	0.626	0.571	0.617						0.8	1.3	1.21	1.22	0.205	0.664
SW 900		0.159	0.175	0.19	0.401	0.412	0.432	0.458	0.472	0.565	0.597	0.513	0.512						0.509
SW 1573	0.382	0.198	0.288	0.582	0.364	0.482	0.412	0.683						0.947	1.08	1.01	1.13	0.419	0.459
UMC-11	0.999	1.07	1.05	0.98		0.452	0.596	0.789						0.693	0.55	0.605	0.782	0.873	0.588
